Measured values from patent US20090169700A1, “Healthy Food Product” (priority 2006, published 2009).
Ends that are not written are not given here.

Experiment: Water solubility at 20° C. and pH 6.5 (turbid appearance, 10 mg peptide in 10 ml de-mineralised water)
Assay type: physicochemical
Experimental: Peptides for use in food products according to the invention are water-insoluble in water at 20° C. and a pH of 6.5. This can for example be evidenced by mixing 10 mg of the peptide into 10 ml of de-mineralised water at 20° C. and pH 6.5, and stirring. A (measurable) turbid appearance of the solution after stirring is indicative of the fact that the peptide is water-insoluble.

| Molecule | Peptide category (water solubility) |
| --- | --- |
| C[C@H](N)C(=O)N[C@@H](C)C(=O)N[C@@H](C)C(=O)N[C@@H](C)C(=O)N[C@@H](C)C(=O)N[C@@H](C)C(=O)O [AAAAAA] | Insoluble peptides |
| AAAAAAAA [AAAAAAAA] | Insoluble peptides |
| DDDDDD [DDDDDD] | Soluble peptides |
| EAEWEY [EAEWEY] | Soluble peptides |
| GSGGSG [GSGGSG] | Soluble peptides |
| LLLLLL [LLLLLL] | Insoluble peptides |
| VEWEME [VEWEME] | Soluble peptides |
